Among the data in US8399452B2, “Dibenzo[b,f][1,4]oxazepin-11-yl-N-hydroxybenzamides as HDAC inhibitors” (Methylgene Inc., priority 2006, dated 2013) are IC50 values, retold here.

For the first assay, the target named is histone deacetylase (HDAC Enzyme). In words: Inhibition of Histone Deacetylase Enzymatic Activity (Boc-Lys(Ac)-AMC, Fluor-de-Lys developer). The format is biochemical. To be noted: Table 9; read-out: HDAC Inhibition (IC50 μM) HDAC Enzyme. On the procedure: The following protocol is used to assay the compounds of the invention.
The mixture is pre-incubated for 5 minutes at room temperature. The reaction is started by bringing the temperature to 37° C. and adding 16 μl substrate. Total reaction volume is 50 μl.
In the Tables 8, 9 and 10, A≦[…]<B≦0.1 μM; 0.1 μM<C≦1 μM; and 1 μM<D≦10 μM.
`O=C(NO)c1cnc(N2C[C@@H]3C[C@H]2CN3c2cccc(S(F)(F)(F)(F)F)c2)nc1`: the IC50 was below 0.05 µM.

In the case of `O=C(NO)c1cnc(N2CC3CC2CO3)nc1` (stereo not shown) [2-(2-oxa-5-azabicyclo[2.2.1]heptan-5-yl)-N-hydroxypyrimidine-5-carboxamide], the half-maximal inhibitory concentration (IC50) fell in the range of 0.1 to 1 µM.

With `N#Cc1cccc(N2CC3CC2CN3c2ncc(C(=O)NO)cn2)c1` (stereo not shown) [2-(5-(3-cyanophenyl)-2,5-diazabicyclo[2.2.1]heptan-2-yl)-N-hydroxypyrimidine-5-carboxamide], the concentration for half-maximal inhibition (IC50) is below 0.05 µM.

For `O=C(NO)c1cnc(N2C[C@@H]3C[C@H]2CN3)nc1` [2-((1S,4S)-2,5-diazabicyclo[2.2.1]heptan-2-yl)-N-hydroxypyrimidine-5-carboxamide], the concentration for half-maximal inhibition (IC50) was 0.1 to 1 µM.

With `O=C(NO)c1cnc(N2C[C@@H]3C[C@H]2CN3c2ccc3c(c2)OC(F)(F)O3)nc1` [2-((1S,4S)-5-(2,2-difluorobenzo[d][1,3]dioxol-5-yl)-2,5-diazabicyclo[2.2.1]heptan-2-yl)-N-hydroxypyrimidine-5-carboxamide], the IC50 was below 0.05 µM.

With `O=C(NO)c1cnc(N2C[C@@H]3C[C@H]2CN3C(=O)C(c2ccccc2)c2ccccc2)nc1` [2-((1S,4S)-5-(2,2-diphenylacetyl)-2,5-diazabicyclo[2.2.1]heptan-2-yl)-N-hydroxypyrimidine-5-carboxamide], the IC50 is 0.05 to 0.1 µM.

Regarding `O=C(NO)c1cnc(N2C[C@@H]3C[C@H]2CN3c2ccc(C(F)(F)F)cc2F)nc1` [2-((1S,4S)-5-(2-fluoro-4-(trifluoromethyl)phenyl)-2,5-diazabicyclo[2.2.1]heptan-2-yl)-N-hydroxypyrimidine-5-carboxamide], the half-inhibitory concentration (IC50) was below 0.05 µM.

For the compound `O=C(NO)c1cnc(N2C[C@@H]3C[C@H]2CN3c2cc(C(F)(F)F)cc(C(F)(F)F)c2)nc1` [2-((1S,4S)-5-(3,5-bis(trifluoromethyl)phenyl)-2,5-diazabicyclo[2.2.1]heptan-2-yl)-N-hydroxypyrimidine-5-carboxamide], the IC50 was below 0.05 µM.

As to `CN(C)Cc1cccc(N2C[C@@H]3C[C@H]2CN3c2ncc(C(=O)NO)cn2)c1` [2-((1S,4S)-5-(3-((dimethylamino)methyl)phenyl)-2,5-diazabicyclo[2.2.1]heptan-2-yl)-N-hydroxypyrimidine-5-carboxamide], the half-inhibitory concentration (IC50) is below 0.05 µM.

`O=C(NO)c1cnc(N2C[C@@H]3C[C@H]2CN3c2cccc(OC(F)F)c2)nc1` [2-((1S,4S)-5-(3-(difluoromethoxy)phenyl)-2,5-diazabicyclo[2.2.1]heptan-2-yl)-N-hydroxypyrimidine-5-carboxamide]: the IC50 was below 0.05 µM.

Regarding `CN(C)C(=O)c1cccc(N2C[C@@H]3C[C@H]2CN3c2ncc(C(=O)NO)cn2)c1` [2-((1S,4S)-5-(3-(dimethylcarbamoyl)phenyl)-2,5-diazabicyclo[2.2.1]heptan-2-yl)-N-hydroxypyrimidine-5-carboxamide], the IC50 was below 0.05 µM.

As to `O=C(NO)c1cnc(N2C[C@@H]3C[C@H]2CN3c2cccc(F)c2)nc1` [2-((1S,4S)-5-(3-fluorophenyl)-2,5-diazabicyclo[2.2.1]heptan-2-yl)-N-hydroxypyrimidine-5-carboxamide], the IC50 was below 0.05 µM.

Regarding `O=C(NO)c1cnc(N2C[C@@H]3C[C@H]2CN3c2ccc(Cl)cc2)nc1` [2-((1S,4S)-5-(4-chlorophenyl)-2,5-diazabicyclo[2.2.1]heptan-2-yl)-N-hydroxypyrimidine-5-carboxamide], the IC50 was below 0.05 µM.

Consider `O=C(NO)c1cnc(N2C[C@@H]3C[C@H]2CN3c2ccc(F)cc2)nc1` [2-((1S,4S)-5-(4-fluorophenyl)-2,5-diazabicyclo[2.2.1]heptan-2-yl)-N-hydroxypyrimidine-5-carboxamide], for which the half-maximal inhibitory concentration (IC50) fell in the range of 0.05 to 0.1 µM.

On to `O=C(NO)c1cnc(N2C[C@@H]3C[C@H]2CN3c2cccc3nonc23)nc1` [2-((1S,4S)-5-(benzo[c][1,2,5]oxadiazol-4-yl)-2,5-diazabicyclo[2.2.1]heptan-2-yl)-N-hydroxypyrimidine-5-carboxamide], for which the IC50 was below 0.05 µM.

Take `O=C(NO)c1cnc(N2C[C@@H]3C[C@H]2CN3c2ccc3nonc3c2)nc1` [2-((1S,4S)-5-(benzo[c][1,2,5]oxadiazol-5-yl)-2,5-diazabicyclo[2.2.1]heptan-2-yl)-N-hydroxypyrimidine-5-carboxamide]: the concentration for half-maximal inhibition (IC50) is below 0.05 µM.

Turning to `O=C(NO)c1cnc(N2C[C@@H]3C[C@H]2CN3c2ccc3nsnc3c2)nc1` [2-((1S,4S)-5-(benzo[c][1,2,5]thiadiazol-5-yl)-2,5-diazabicyclo[2.2.1]heptan-2-yl)-N-hydroxypyrimidine-5-carboxamide], the 50% inhibitory concentration (IC50) was below 0.05 µM.

Consider `O=C(NO)c1cnc(N2C[C@@H]3C[C@H]2CN3c2ccc3c(c2)OCO3)nc1` [2-((1S,4S)-5-(benzo[d][1,3]dioxol-5-yl)-2,5-diazabicyclo[2.2.1]heptan-2-yl)-N-hydroxypyrimidine-5-carboxamide], for which the half-maximal inhibitory concentration (IC50) is below 0.05 µM.

Still in this assay, the particulars now being: Table 10; read-out: HDAC Inhibition (IC50 μM) HDAC Enzyme.
On to `O=C(NO)c1cnc(N2CCCN(c3ncc(C(F)(F)F)cc3Cl)CC2)nc1`, for which the 50% inhibitory concentration (IC50) was below 0.05 µM.

Turning to `O=C(NO)c1cnc(N2C[C@@H]3C[C@]3(c3ccc(Cl)c(Cl)c3)C2)nc1`, the IC50 was 0.1 to 1 µM.

For the compound `O=C(NO)c1ccc(OCCN2C(=O)c3ccccc3Oc3ccccc32)cc1Cl`, the IC50 was 1 to 10 µM.

On to `O=C(NO)c1ccc(OCCN2C(=O)c3ccccc3Oc3ccccc32)cc1F`, for which the half-inhibitory concentration (IC50) lay in the range of 0.05 to 0.1 µM.

In the case of `O=C(CCCCCN1C(=O)c2ccccc2N(C2CC2)c2ccccc21)NO`, the concentration for half-maximal inhibition (IC50) lay within 0.1 to 1 µM.

Consider `O=C(CCCCCCN1C(=O)c2ccccc2N(C2CC2)c2ccccc21)NO`, for which the half-inhibitory concentration (IC50) was 0.1 to 1 µM.

As to `O=C(C=C1c2ccccc2C=Cc2ccccc21)NO`, the IC50 is 0.1 to 1 µM.

Consider `O=C(C=C1c2ccccc2CCc2ccccc21)NO`, for which the IC50 was 1 to 10 µM.

`O=C(CCCCCCCON=C1c2ccccc2CCc2ccccc21)NO`: the IC50 was in the range of 0.1 to 1 µM.

For `O=C(CCCCCCON=C1c2ccccc2CCc2ccccc21)NO`, the 50% inhibitory concentration (IC50) lay within 0.1 to 1 µM.

Regarding `O=C(CCCCCON=C1c2ccccc2CCc2ccccc21)NO`, the IC50 is 0.1 to 1 µM.

Turning to `O=C(CCCON=C1c2ccccc2CCc2ccccc21)NO`, the half-inhibitory concentration (IC50) is 0.1 to 1 µM.

In the case of `O=C(NO)c1ccc(CNC2c3ccccc3CCc3ccccc32)cc1`, the concentration for half-maximal inhibition (IC50) is below 0.05 µM.

Take `O=C(NO)c1ccc(CON=C2c3ccccc3CCc3ccccc32)cc1`: the IC50 fell in the range of 0.1 to 1 µM.

For `O=C(/C=C/c1ccc(CNC2c3ccccc3CCc3ccccc32)cc1)NO`, the IC50 fell in the range of 0.05 to 0.1 µM.

As for `O=C(NO)c1ccc(ON=C2c3ccccc3CCc3ccccc32)cc1`, the half-inhibitory concentration (IC50) lay in the range of 0.1 to 1 µM.

Take `O=C(NO)c1cnc(NC2c3ccccc3CCc3ccccc32)nc1`: the concentration for half-maximal inhibition (IC50) is below 0.05 µM.

In the case of `O=C(CCCCCON=c1c2ccccc2ccc2ccccc12)NO`, the IC50 lay in the range of 0.1 to 1 µM.

In the case of `O=C(CCCCON=C1c2ccccc2CCc2ccccc21)NO`, the IC50 is 0.1 to 1 µM.

As for `O=C(NO)c1cnc(N2CCN(C3c4ccccc4CCc4ccccc43)CC2)nc1`, the IC50 fell in the range of 0.1 to 1 µM.

Take `O=C(NO)c1cnc(NCC2c3ccccc3CCc3ccccc32)nc1`: the half-maximal inhibitory concentration (IC50) is below 0.05 µM.

Consider `CN(c1ncc(C(=O)NO)cn1)C1c2ccccc2CCc2ccccc21`, for which the IC50 is below 0.05 µM.

Turning to `O=C(NO)c1cnc(NC2c3ccccc3C=Cc3ccccc32)nc1`, the 50% inhibitory concentration (IC50) was below 0.05 µM.

Take `O=C(CCCCCCN1c2ccccc2Oc2ccccc2S1(=O)=O)NO`: the half-inhibitory concentration (IC50) was 0.1 to 1 µM.

With `O=C(CCCCCCC(=O)NC1c2ccccc2C=Cc2ccccc21)NO`, the IC50 fell in the range of 0.1 to 1 µM.

On to `O=C(CCCCCC(=O)NC1c2ccccc2C=Cc2ccccc21)NO`, for which the concentration for half-maximal inhibition (IC50) was 0.1 to 1 µM.

Consider `O=C(NO)c1cnc(NC2c3ccccc3C=C(F)c3ccccc32)nc1` (stereo not shown), for which the IC50 was below 0.05 µM.

`O=C(NO)c1ccc(NC2c3ccccc3CCc3ccccc32)nc1`: the 50% inhibitory concentration (IC50) is below 0.05 µM.

Consider `O=C(NO)c1cnc(C2c3ccccc3C=Cc3ccccc32)nc1`, for which the IC50 was 0.1 to 1 µM.

`O=C(NO)c1cn2c(n1)sc1ccccc12`: the half-maximal inhibitory concentration (IC50) was in the range of 0.1 to 1 µM.

For the compound `O=C(NO)c1ccc(COC2c3ccccc3CCc3ccccc32)cc1`, the IC50 is 0.1 to 1 µM.

As for `O=C(NO)c1cccc(COC2c3ccccc3CCc3ccccc32)c1`, the IC50 fell in the range of 0.1 to 1 µM.

For the compound `O=C(NO)c1cccc(CNC2c3ccccc3CCc3ccccc32)c1`, the IC50 lay within 0.1 to 1 µM.

For `O=C(Cc1ccc(CN2C(=O)c3ccccc3Oc3ccccc32)cc1)NO`, the concentration for half-maximal inhibition (IC50) is 0.1 to 1 µM.

In the case of `O=C(NO)c1cnc(N2C[C@H]3C[C@@]3(c3cccc(C(F)(F)F)c3)C2)nc1`, the IC50 lay within 0.1 to 1 µM.

As for `O=C(NO)c1cnc(N2C[C@H]3C[C@@]3(c3ccc(C(F)(F)F)cc3)C2)nc1`, the IC50 is 0.1 to 1 µM.

`O=C(CCn1cc(CN2C(=O)c3ccccc3Oc3ccccc32)nn1)NO`: the 50% inhibitory concentration (IC50) lay within 0.1 to 1 µM.

As for `O=C(/C=C/c1ccc(CN2C(=O)c3ccccc3Oc3ccccc32)cc1)NO`, the half-maximal inhibitory concentration (IC50) is below 0.05 µM.

On to `O=C(/C=C/c1ccc(CN2C(=O)CN=C(c3ccccc3)c3ccccc32)cc1)NO`, for which the concentration for half-maximal inhibition (IC50) was 0.05 to 0.1 µM.

With `O=C(NO)c1ccc(/C=C/CN2C(=O)c3ccccc3Oc3ccccc32)cc1`, the IC50 lay within 0.05 to 0.1 µM.

`O=C(NO)c1cnc(NC2c3ccccc3-c3ccccc32)nc1` [2-(9H-fluoren-9-ylamino)-N-hydroxypyrimidine-5-carboxamide]: the IC50 fell in the range of 0.1 to 1 µM.

Consider `O=C(NO)c1cnc(N2C[C@H]3C[C@@]3(c3ccc(Cl)c(Cl)c3)C2)nc1` [2-((1R,5S)-1-(3,4-dichlorophenyl)-3-azabicyclo[3.1.0]hexan-3-yl)-N-hydroxypyrimidine-5-carboxamide], for which the IC50 was 0.1 to 1 µM.

Still in this assay, the particulars now being: read-out: HDAC Inhibtion (IC50 μM) HDAC Enzyme.
With `O=C(NO)c1ccc(C2=Nc3ccccc3S(=O)(=O)c3ccccc32)cc1`, the IC50 was in the range of 1 to 10 µM.

In the case of `O=C(NO)c1ccc(C2=Nc3ccccc3[S+]([O-])c3ccccc32)cc1` (stereo not shown), the half-inhibitory concentration (IC50) fell in the range of 0.1 to 1 µM.

Consider `O=C(NO)c1ccc(C2=Nc3cncnc3N3CCc4cccc2c43)cc1`, for which the 50% inhibitory concentration (IC50) was 0.1 to 1 µM.

Turning to `CN1CCN(C2=Nc3cc(C(=O)NO)ccc3Oc3ccccc32)CC1`, the IC50 lay within 0.1 to 1 µM.

Broadly, the IC50 is the point on the concentration scale where inhibition reaches its midpoint.
